One experiment deals with LDL natives. Nature of the experiment: Protection against LDL oxidation (Cu2+ system, 24 h incubation, FPLC analysis). The settings on record: 10⁻⁵ M, 24 h incubation with native LDL and Cu²⁺ system, compared with probucol. Format: biochemical. How it is done: La capacité des composés de l'invention à diminuer les proportions de LDL oxydées a été mesurée de la façon suivante : on réalise une incubation de 24 heures regroupant des LDL natives, un système Cu²⁺ générateur de radicaux libres et les composés à tester. Les résultats sont obtenus après analyse du milieu par une technique chromatographique haute performance : la FPLC (Fast Protein Liquid Chromatography). Le pouvoir protecteur du composé testé est déterminé après comparaison du chromatogramme obtenu avec celui du témoin positif de référence : le probucol. Il apparaît clairement que les composés de l'invention ont un pouvoir protecteur très important. A titre de comparaison, pour une concentration de 10⁻⁵ M, le niveau de protection obtenu pour les composés de l'invention dépasse celui du probucol.

Experiment [1] concerns homogénats de cerveaux de rats. Nature of the experiment: Induced lipid peroxidation (Fe2+ - ascorbate) in rat brain homogenates (MDA). Format: biochemical. The settings on record: ratio versus probucol, induced peroxidation (Fe²⁺ - ascorbate). How it is done: L'action des composés utilisés selon l'invention, susceptibles de piéger les radicaux ·OH, a été étudiée d'une part, sur la peroxydation spontanée des lipides et d'autre part, sur la peroxydation induite par le système Fe²⁺ - ascorbate (10 µM - 250 µM), et ce, sur des homogénats de cerveaux de rats.
Lors de la mesure de la peroxydation lipidique spontanée, les homogénats de cerveau de rats sont placés en présence ou en absence des composés à tester durant 60 minutes à 37°C. La réaction est arrêtée à 0°C et le dosage du malondialdéhyde est effectué à l'aide d'acide thiobarbiturique. La peroxydation lipidique est déterminée par les substances réagissant avec l'acide thiobarbiturique exprimées en nanomoles de malondialdéhyde (MDA). Les concentrations des composés testés inhibant de 50 % la peroxydation du substrat sont calculées. Il est apparu que les composés de formule (I) utilisés selon l'invention possèdent une activité antiperoxydante particulièrement intense puisqu'ils possèdent une activité antiperoxydante nettement plus importante que le probucol et la vitamine E, qui est l'antioxydant naturel de l'organisme humain.
Lors de la mesure de la peroxydation lipidique induite, la méthodologie est identique à celle précédemment décrite à l'exception de l'addition à l'homogénat du système inducteur de radicaux : Fe²⁺ - ascorbate. […]

The subject of the next experiment is granulocytes de lapins. Nature of the experiment: Anti-inflammatory activity: leukotriene B4 release from A 23187-stimulated granulocytes (RIA). It is filed as cell-based. The settings on record: stimulation by calcium ionophore A 23187, mean of 3 independent measurements, versus control, read-out: pouvoir inhibiteur (leucotriènes B₄ libérés). The source says: Les mesures sont réalisées sur granulocytes de lapins. Les granulocytes isolés sont stimulés in vitro par l'ionophore calcique (A 23187). Les leucotriènes B₄ libérés dans le milieu extracellulaire sont mesurés par Radio Immuno Assay (RIA). Les résultats (moyennes de 3 mesures indépendantes) sont exprimés en pourcentage d'inhibition par rapport au témoin.

Experiment [2] concerns agrégation plaquettaire (plasma de lapin enrichi en plaquettes). In words: Anti-aggregant activity: platelet aggregation induced by sodium arachidonate. It is filed as cell-based. The settings on record: aggregation induced by arachidonate de sodium (50 µg/ml); rabbit platelet-rich plasma; read-out: concentration minimale active. How it is done:
Dans cette étude, les composés de l'invention (100 µg/ml) ont été testés dans le but de quantifier leur pouvoir d'inhibition du maximum non-réversible d'agrégation plaquettaire (plasma de lapin enrichi en plaquettes) induite par l'arachidonate de sodium (50 µg/ml). Ainsi, la concentration minimale active pour le composé de l'exemple 17 est de 30 µM.

`CCCCN(C(=O)c1cc2cc(O)ccc2n1C)c1ccccc1` [exemple 17, N-(n-Butyl)-N-phényl-(5-hydroxy-1-méthylindol-2-yl)carboxamide]: in the experiment on LDL natives, the “pouvoir protecteur vis-à-vis d'un système oxydant des LDL” value is recorded as “pratiquement total”. Moreover, the Ratio probucol in experiment [1] came out at 6. Also, in the experiment with granulocytes de lapins, the inhibition at 10 µM amounted to 51%. In addition, in experiment [2], the minimal effective concentration turned out to be 30 µM.
